In ChEMBL document CHEMBL1140333, “Structure-based design, synthesis, and biological evaluation of inhibitors of Mycobacterium tuberculosis type II dehydroquinase” (J Med Chem, 2005):

These compounds were tested against T1, 3-dehydroquinate dehydratase (Mycobacterium tuberculosis, UniProt P9WPX7) (assay: Inhibition of Mycobacterium tuberculosis type II dehydroquinase at 25 degree C pH 8.2).
T1 sequence (P9WPX7 whole entry): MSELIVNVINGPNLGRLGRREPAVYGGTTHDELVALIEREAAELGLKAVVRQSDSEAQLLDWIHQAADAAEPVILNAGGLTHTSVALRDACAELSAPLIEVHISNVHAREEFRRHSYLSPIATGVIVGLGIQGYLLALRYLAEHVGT

| SMILES | Ki |
| --- | --- |
| O=C(O)[C@]1(O)C=C(c2cccnc2)[C@@H](O)[C@H](O)C1 | 45000 nM |
| O=C(O)[C@]1(O)C/C(=N\O)[C@@H](O)[C@H](O)C1 | 20000 nM |
| O=C(O)[C@]1(O)C=C(c2cc(F)cc(F)c2)[C@@H](O)[C@H](O)C1 | 2440 nM |
| O=C(O)[C@]1(O)C=C(c2ccccc2)[C@@H](O)[C@H](O)C1 | 1500 nM |
| O=C(O)[C@]1(O)C=C(c2ccc(F)cc2)[C@@H](O)[C@H](O)C1 | 1800 nM |
| O=C(O)[C@]1(O)C=C(c2cccc([N+](=O)[O-])c2)[C@@H](O)[C@H](O)C1 | 54 nM |
| O=C(O)[C@]1(O)C=C(c2ccsc2)[C@@H](O)[C@H](O)C1 | 590 nM |
| O=C(O)[C@]1(O)C=C(c2cccc(F)c2)[C@@H](O)[C@H](O)C1 | 1500 nM |
| O=C(O)c1cccc(C2=C[C@@](O)(C(=O)O)C[C@@H](O)[C@@H]2O)c1 | 150000 nM |
| O=C(O)[C@]1(O)C=C(F)[C@@H](O)[C@H](O)C1 | 10000 nM |
| O=C(O)[C@]1(O)C=C(c2cccc(C(F)(F)F)c2)[C@@H](O)[C@H](O)C1 | 2120 nM |
| O=C(O)[C@]1(O)C=C(c2ccoc2)[C@@H](O)[C@H](O)C1 | 830 nM |
| O=C(O)[C@]1(O)C=C(c2cccc(O)c2)[C@@H](O)[C@H](O)C1 | 95000 nM |
| O=C(O)[C@]1(O)C=C(c2ccc(C(F)(F)F)cc2)[C@@H](O)[C@H](O)C1 | 17000 nM |
